Assays:
[1] = Light generation from compounds following incubation with hydrogen peroxide in different pH solutions (D-cysteine conversion, LDR); format: biochemical; settings: for Signal to Background Ratios: signal with peroxide to background no peroxide
Method: In this experiment, various compounds were tested for their ability to detect hydrogen peroxide in different pH solutions. Several compounds are shown to give much better signal strength and signal to background ratios than PBI 3048 (Example 23). 4 mg/ml solutions of compounds PBI 4480, 4481, 4452, 4470, 4472, 3048 (FIGS. 1 and 2) were made by dissolving them in DMSO (Fluka 41641). 30 μl of the compound solutions was diluted to 1.5 ml with Nanopure water, and 50 μl aliquots added as follows into a white, 96-well luminometer plate: PBI 4481, row A1-12; PBI 4480, row B1-12; PBI 4452, row C1-12; PBI 3048, row D1-12; PBI 4472, row E1-12 and PBI 4470, row F1-12.
25 μl of 200 mM TRIS buffer, pH 7.6 was added to wells A1-F4, 25 μl of 200 mM TRIS buffer, pH 8.8 was added to wells A5-F8, and 25 μl of 200 mM Tris buffer, pH 10.4 was added […].
30% hydrogen peroxide (Sigma H 1009-5 ml) was diluted to 40 μM in Nanopure water, and 25 μl added to columns 3, 4, 7, 8, 11 and 12 of the plate. 25 μl water was added to columns 1, 2, 5, 6, 9, and 10 of the plate, and the plate incubated at room temperature for 60 minutes.
A conversion solution was made by mixing 100 μl of 100 mM D-cysteine, 1 ml Tris Buffer pH 8.8 and 8.9 ml nanopure water. After mixing, 80 μl of the solution was added to wells A1-F12 of a new luminometer plate.
After incubation, 20 μl of sample from wells A1-F12 of the first plate was transferred to the same well in the new luminometer plate. The new plate was incubated at room temperature for 5 minutes, 100 μl of LDR (Example 23) was added to wells A1-F12, and bioluminescence detected on a Glo Max® luminometer (Promega).
The RLUs for the duplicate wells were averaged. The averages for the wells containing hydrogen peroxide were compared to the wells without hydrogen peroxide at the same pH (Table 2). BZT is used to designate benzothiazole derivatives of the compounds.
The Signal to Background (S/B) ratio is used to compare assay reagents with very difference signal strengths. An assay with a higher S/B ratio is often considered a better assay than one with a smaller S/B ratio (with all other factors being relatively equal).

[2] = Signal strength differences due to reaction pH and buffer composition (hydrogen peroxide, D-cysteine conversion, LDR); format: biochemical; settings: for Net Average Signals at 15 Minutes / Net Average Signals at 60 Minutes / Net Average Signals at 105 Minutes: 100 μl of 10 μM H2O2 added
Method: A 30 μl sample of 4 mg/ml PBI 4458 in DMSO was diluted to 1.5 ml with Nanopure water, and 50 μl added to wells A1-12 and E1-12 of a microtiter plate. A 30 μl sample of 4 mg/ml PBI 4472 in DMSO was diluted to 1.5 ml with Nanopure, and 50 μl added to wells B1-12 and F1-12 of the plate. A 30 μl sample of 4 mg/ml PBI 4480 in DMSO was diluted to 1.5 ml with Nanopure water, and 50 μl added to wells C1-12 and G1-12 of the plate. A 30 μl sample of 4 mg/ml PBI 4481 in DMSO was diluted to 1.5 ml with Nanopure water, and 50 μl added to wells D1-12 and H1-12 of the plate. To the plate, a 50 μl sample of 200 mM KHPO4, pH 7.4 was added to wells A1-D4; 50 μl 200 mM Tris buffer, pH 7.4 was added to wells A5-D8; 50 μl 250 mM HEPES buffer, pH 7.5 was added to wells A9-D12; 50 μl 200 mM KHPO4 buffer, pH 9.2 was added to wells E1-H4; 50 μl 250 mM Tris buffer, pH 10.4 was added to wells E5-H8; and 50 μl 100 mM CAPS buffer, pH 10.4 was added to wells E9-H12.
A sample of hydrogen peroxide (30%, Sigma, H1009-5 ml) was diluted to 10 μM with Nanopure water, and 100 μl added to columns 3, 4, 7, 8, 11, 12 wells A-H of the plate. 100 μl Nanopure water was added to columns 1, 2, 5, 6, 9 and 10 of the plate. The plate was incubated at room temperature for 15 minutes.
A conversion solution was made by mixing 5 ml of 1 M HEPES buffer, pH 7.5, 4.9 ml of Nanopure water and 100 μl of 100 mM D-cysteine (in Nanopure water), and […] added to all wells of a luminometer plate.
After incubation, 25 μl of sample from all wells in the plate was transferred and mixed into the corresponding wells in the luminometer plate, incubated 2-3 minutes at room temperature, and 50 μl LDR (Example 23) added. The luminometer plate was incubated for 15 minutes at room temperature, and bioluminescence detected on a GloMax® luminometer.
Additional samples were taken at 60 and 105 minutes and added to a fresh luminometer plates containing 25 μl of conversion solution in all wells. The plates were then incubated for 15 minutes at room temperature, and bioluminescence detected as previously described.

[3] = pH 7.6 TRIS buffer, No H2O2, 60 minutes
[4] = pH 7.6 TRIS buffer, With H2O2 (25 μl of 40 μM added), 60 minutes
[5] = pH 8.8 TRIS buffer, No H2O2, 60 minutes
[6] = pH 8.8 TRIS buffer, With H2O2 (25 μl of 40 μM added), 60 minutes
[7] = pH 10.4 Tris buffer, No H2O2, 60 minutes
[8] = pH 10.4 Tris buffer, With H2O2 (25 μl of 40 μM added), 60 minutes

## CC1(C)OB(c2ccc(COc3ccc4nc(C#N)sc4c3)cc2)OC1(C)C [PBI 4472, 6-((4-(4,4,5,5-tetramethyl-1,3,2-dioxaborolan-2-yl)benzyl)oxy)benzo-[d]thiazole-2-carbonitrile]
[1]; pH 7.6
  Signal to Background Ratios: 18.0
[1]; [3]
  averaged RLUs (bioluminescence): 102,925 RLU
[1]; [4]
  averaged RLUs (bioluminescence): 1,854,434 RLU
[1]; pH 8.8
  Signal to Background Ratios: 31.6
[1]; [5]
  averaged RLUs (bioluminescence): 163,710 RLU
[1]; [6]
  averaged RLUs (bioluminescence): 5,175,361 RLU
[1]; pH 10.4
  Signal to Background Ratios: 24.1
[1]; [7]
  averaged RLUs (bioluminescence): 337,921 RLU
[1]; [8]
  averaged RLUs (bioluminescence): 8,159,216 RLU
[2]; CAPS pH 10.4, 15 minutes
  Signal to Background Ratios at 15 Minutes: 17.0
  Net Average Signals at 15 Minutes: 3,154,440 RLU
[2]; CAPS pH 10.4, 60 minutes
  Signal to Background Ratios at 60 Minutes: 15.4
  Net Average Signals at 60 Minutes: 5,425,701 RLU
[2]; CAPS pH 10.4, 105 minutes
  Signal to Background Ratios at 105 Minutes: 11.3
  Net Average Signals at 105 Minutes: 7,554,957 RLU
[2]; HEPES pH 7.5, 15 minutes
  Signal to Background Ratios at 15 Minutes: 3.9
  Net Average Signals at 15 Minutes: 58,399 RLU
[2]; HEPES pH 7.5, 60 minutes
  Signal to Background Ratios at 60 Minutes: 8.0
  Net Average Signals at 60 Minutes: 159,982 RLU
[2]; HEPES pH 7.5, 105 minutes
  Signal to Background Ratios at 105 Minutes: 8.2
  Net Average Signals at 105 Minutes: 259,725 RLU
[2]; KPO4 Ph 7.4, 15 minutes
  Net Average Signals at 15 Minutes: 43,867 RLU
[2]; KPO4 pH 7.4, 15 minutes
  Signal to Background Ratios at 15 Minutes: 3.1
[2]; KPO4 pH 7.4, 60 minutes
  Signal to Background Ratios at 60 Minutes: 4.9
  Net Average Signals at 60 Minutes: 102,614 RLU
[2]; KPO4 pH 7.4, 105 minutes
  Signal to Background Ratios at 105 Minutes: 5.3
  Net Average Signals at 105 Minutes: 168,787 RLU
[2]; KPO4 pH 9.2, 15 minutes
  Signal to Background Ratios at 15 Minutes: 11.0
  Net Average Signals at 15 Minutes: 400,087 RLU
[2]; KPO4 pH 9.2, 60 minutes
  Signal to Background Ratios at 60 Minutes: 14.7
  Net Average Signals at 60 Minutes: 781,296 RLU
[2]; KPO4 pH 9.2, 105 minutes
  Signal to Background Ratios at 105 Minutes: 14.6
  Net Average Signals at 105 Minutes: 1,380,626 RLU
[2]; TRIS pH 10.4, 15 minutes
  Signal to Background Ratios at 15 Minutes: 32.9
  Net Average Signals at 15 Minutes: 1,530,303 RLU
[2]; TRIS pH 10.4, 60 minutes
  Signal to Background Ratios at 60 Minutes: 34.2
  Net Average Signals at 60 Minutes: 3,777,236 RLU
[2]; TRIS pH 10.4, 105 minutes
  Signal to Background Ratios at 105 Minutes: 26.5
  Net Average Signals at 105 Minutes: 6,279,007 RLU
[2]; Tris pH 7.4, 15 minutes
  Signal to Background Ratios at 15 Minutes: 6.6
  Net Average Signals at 15 Minutes: 121,480 RLU
[2]; Tris pH 7.4, 60 minutes
  Signal to Background Ratios at 60 Minutes: 13.2
  Net Average Signals at 60 Minutes: 371,397 RLU
[2]; Tris pH 7.4, 105 minutes
  Signal to Background Ratios at 105 Minutes: 13.6
  Net Average Signals at 105 Minutes: 658,967 RLU

## CC1(C)OB(/C=C/COc2ccc3nc(C#N)sc3c2)OC1(C)C [PBI 4458, (E)-6-((3-(4,4,5,5-tetramethyl-1,3,2-dioxaborolan-2-yl)allyl)oxy)-benzo[d]thiazole-2-carbonitrile]
[2]; CAPS pH 10.4, 15 minutes
  Signal to Background Ratios at 15 Minutes: 13.2
  Net Average Signals at 15 Minutes: 4,577,774 RLU
[2]; CAPS pH 10.4, 60 minutes
  Signal to Background Ratios at 60 Minutes: 12.1
  Net Average Signals at 60 Minutes: 5,831,485 RLU
[2]; CAPS pH 10.4, 105 minutes
  Signal to Background Ratios at 105 Minutes: 9.6
  Net Average Signals at 105 Minutes: 8,063,108 RLU
[2]; HEPES pH 7.5, 15 minutes
  Signal to Background Ratios at 15 Minutes: 2.0
  Net Average Signals at 15 Minutes: 117,752 RLU
[2]; HEPES pH 7.5, 60 minutes
  Signal to Background Ratios at 60 Minutes: 4.5
  Net Average Signals at 60 Minutes: 494,958 RLU
[2]; HEPES pH 7.5, 105 minutes
  Signal to Background Ratios at 105 Minutes: 5.7
  Net Average Signals at 105 Minutes: 1,033,511 RLU
[2]; KPO4 Ph 7.4, 15 minutes
  Net Average Signals at 15 Minutes: 148,190 RLU
[2]; KPO4 pH 7.4, 15 minutes
  Signal to Background Ratios at 15 Minutes: 2.2
[2]; KPO4 pH 7.4, 60 minutes
  Signal to Background Ratios at 60 Minutes: 4.5
  Net Average Signals at 60 Minutes: 615,057 RLU
[2]; KPO4 pH 7.4, 105 minutes
  Signal to Background Ratios at 105 Minutes: 5.4
  Net Average Signals at 105 Minutes: 1,297,857 RLU
[2]; KPO4 pH 9.2, 15 minutes
  Signal to Background Ratios at 15 Minutes: 6.4
  Net Average Signals at 15 Minutes: 937,111 RLU
[2]; KPO4 pH 9.2, 60 minutes
  Signal to Background Ratios at 60 Minutes: 9.5
  Net Average Signals at 60 Minutes: 2,490,775 RLU
[2]; KPO4 pH 9.2, 105 minutes
  Signal to Background Ratios at 105 Minutes: 9.1
  Net Average Signals at 105 Minutes: 4,925,484 RLU
[2]; TRIS pH 10.4, 15 minutes
  Signal to Background Ratios at 15 Minutes: 15.2
  Net Average Signals at 15 Minutes: 2,348,900 RLU
[2]; TRIS pH 10.4, 60 minutes
  Signal to Background Ratios at 60 Minutes: 19.4
  Net Average Signals at 60 Minutes: 3,795,644 RLU
[2]; TRIS pH 10.4, 105 minutes
  Signal to Background Ratios at 105 Minutes: 15.7
  Net Average Signals at 105 Minutes: 5,482,012 RLU
[2]; Tris pH 7.4, 15 minutes
  Signal to Background Ratios at 15 Minutes: 2.2
  Net Average Signals at 15 Minutes: 150,205 RLU
[2]; Tris pH 7.4, 60 minutes
  Signal to Background Ratios at 60 Minutes: 4.6
  Net Average Signals at 60 Minutes: 626,927 RLU
[2]; Tris pH 7.4, 105 minutes
  Signal to Background Ratios at 105 Minutes: 6.0
  Net Average Signals at 105 Minutes: 1,274,061 RLU

## O=C(O)C1CSC(c2nc3ccc(OCc4ccc(B(O)O)cc4)cc3s2)=N1 (stereo not drawn) [PBI 3048]
[1]; pH 7.6
  Signal to Background Ratios: 3.0
[1]; [3]
  averaged RLUs (bioluminescence): 569,141 RLU
[1]; [4]
  averaged RLUs (bioluminescence): 1,726,143 RLU
[1]; pH 8.8
  Signal to Background Ratios: 4.5
[1]; [5]
  averaged RLUs (bioluminescence): 558,869 RLU
[1]; [6]
  averaged RLUs (bioluminescence): 2,499,869 RLU
[1]; pH 10.4
  Signal to Background Ratios: 6.7
[1]; [7]
  averaged RLUs (bioluminescence): 558,333 RLU
[1]; [8]
  averaged RLUs (bioluminescence): 3,768,437 RLU

— patent US8937183B2, “Detection of hydrogen peroxide” (Promega Corporation, priority 2011, dated 2015)
